In general, Ki refers to a dissociation constant, usually derived from enzyme kinetics or from competition with a known ligand.

Consider 9 compounds from ChEMBL document CHEMBL2203055, “From α4β2 Nicotinic Ligands to the Discovery of σ1 Receptor Ligands: Pharmacophore Analysis and Rational Design” (ACS Med Chem Lett, 2012).

For assay [1], the system named is PC-12. In words: Displacement of [3H]DTG from sigma 2 receptor in rat PC12 cell membrane at 10 uM after 2 hrs by microbeta scintillation counting analysis. Type of assay: cell membranes.
In assay [2] the target is Sigma non-opioid intracellular receptor 1 (Rattus norvegicus) (UniProt Q9R0C9). Briefly: Displacement of [3H]pentazocine from sigma 1 receptor in rat brain membrane at 10 uM after 2.5 hrs by microbeta scintillation counting analysis. It is filed as cell membranes.
Sequence of Sigma non-opioid intracellular receptor 1 (Rattus norvegicus) (Q9R0C9 whole entry): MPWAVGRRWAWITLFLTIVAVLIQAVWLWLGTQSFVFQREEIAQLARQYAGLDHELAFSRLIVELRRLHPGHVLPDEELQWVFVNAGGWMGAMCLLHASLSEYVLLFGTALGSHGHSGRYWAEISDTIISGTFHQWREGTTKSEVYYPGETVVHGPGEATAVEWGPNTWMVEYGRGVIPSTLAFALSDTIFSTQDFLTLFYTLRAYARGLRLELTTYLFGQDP
Assay [3] concerns the target Neuronal acetylcholine receptor; alpha4/beta4 (Rattus norvegicus, UniProt P09483+P12392). Briefly: Displacement of [3H]epibatidine from alpha4beta4 nAChR after 4 hrs by liquid scintillation counting analysis. It is filed as protein-complex assay. (Loss of bound radioactivity is the signal in a displacement assay; it reports binding, not function.)
Assay [4] has as its target T1, Neuronal acetylcholine receptor; alpha4/beta2 (Rattus norvegicus, UniProt P09483+P12390). Briefly: Displacement of [3H]epibatidine from alpha4beta2* nAChR in rat forebrain after 4 hrs by liquid scintillation counting analysis.
Assay [5] has as its target T1, Neuronal acetylcholine receptor; alpha4/beta2. Briefly: Displacement of [3H]epibatidine from alpha4beta2 nAChR after 4 hrs by liquid scintillation counting analysis. It is filed as protein-complex assay.
In assay [6] the target is Neuronal acetylcholine receptor; alpha3/beta4 (Rattus norvegicus, UniProt P04757+P12392). Briefly: Displacement of [3H]epibatidine from alpha3beta4 nAChR after 4 hrs by liquid scintillation counting analysis. Type of assay: protein-complex assay.
Sequence of Neuronal acetylcholine receptor; alpha3/beta4 (P04757 whole entry): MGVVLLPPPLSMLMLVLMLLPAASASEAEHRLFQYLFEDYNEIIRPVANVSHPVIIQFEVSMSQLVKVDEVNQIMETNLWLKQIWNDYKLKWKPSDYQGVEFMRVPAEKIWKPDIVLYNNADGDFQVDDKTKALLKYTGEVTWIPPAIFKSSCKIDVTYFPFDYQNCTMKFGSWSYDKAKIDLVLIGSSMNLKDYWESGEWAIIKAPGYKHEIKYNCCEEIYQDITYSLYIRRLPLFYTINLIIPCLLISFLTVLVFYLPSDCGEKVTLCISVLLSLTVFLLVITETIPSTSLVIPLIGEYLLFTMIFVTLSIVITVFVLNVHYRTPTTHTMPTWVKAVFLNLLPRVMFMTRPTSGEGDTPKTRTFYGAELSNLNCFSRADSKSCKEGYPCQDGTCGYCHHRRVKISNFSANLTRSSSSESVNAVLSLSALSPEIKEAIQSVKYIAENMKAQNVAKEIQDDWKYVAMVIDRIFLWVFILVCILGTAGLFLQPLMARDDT
Sequence of Neuronal acetylcholine receptor; alpha3/beta4 (P12392 whole entry): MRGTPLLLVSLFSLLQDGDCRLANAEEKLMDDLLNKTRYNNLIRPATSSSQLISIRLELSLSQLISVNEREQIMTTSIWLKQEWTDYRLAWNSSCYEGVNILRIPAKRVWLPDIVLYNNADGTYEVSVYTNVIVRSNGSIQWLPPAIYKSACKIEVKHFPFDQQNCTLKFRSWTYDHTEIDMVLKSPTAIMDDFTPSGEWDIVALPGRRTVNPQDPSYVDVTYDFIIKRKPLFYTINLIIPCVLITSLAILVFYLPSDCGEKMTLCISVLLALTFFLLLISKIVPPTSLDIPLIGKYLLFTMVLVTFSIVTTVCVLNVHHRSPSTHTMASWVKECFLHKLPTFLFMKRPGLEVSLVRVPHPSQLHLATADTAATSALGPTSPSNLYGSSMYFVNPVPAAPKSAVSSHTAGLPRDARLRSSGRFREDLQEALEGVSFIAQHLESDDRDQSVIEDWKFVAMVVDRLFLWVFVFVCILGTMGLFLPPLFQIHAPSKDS
Assay [7] addresses Neuronal acetylcholine receptor; alpha3/beta2 (Rattus norvegicus, UniProt P04757+P12390). Briefly: Displacement of [3H]epibatidine from alpha3beta2 nAChR after 4 hrs by liquid scintillation counting analysis. It is filed as protein-complex assay.
The target of assay [8] is Neuronal acetylcholine receptor; alpha2/beta4 (Rattus norvegicus, UniProt P12389+P12392). Briefly: Displacement of [3H]epibatidine from alpha2beta4 nAChR after 4 hrs by liquid scintillation counting analysis. It is filed as protein-complex assay.
Sequence of Neuronal acetylcholine receptor; alpha2/beta4 (P12389 whole entry): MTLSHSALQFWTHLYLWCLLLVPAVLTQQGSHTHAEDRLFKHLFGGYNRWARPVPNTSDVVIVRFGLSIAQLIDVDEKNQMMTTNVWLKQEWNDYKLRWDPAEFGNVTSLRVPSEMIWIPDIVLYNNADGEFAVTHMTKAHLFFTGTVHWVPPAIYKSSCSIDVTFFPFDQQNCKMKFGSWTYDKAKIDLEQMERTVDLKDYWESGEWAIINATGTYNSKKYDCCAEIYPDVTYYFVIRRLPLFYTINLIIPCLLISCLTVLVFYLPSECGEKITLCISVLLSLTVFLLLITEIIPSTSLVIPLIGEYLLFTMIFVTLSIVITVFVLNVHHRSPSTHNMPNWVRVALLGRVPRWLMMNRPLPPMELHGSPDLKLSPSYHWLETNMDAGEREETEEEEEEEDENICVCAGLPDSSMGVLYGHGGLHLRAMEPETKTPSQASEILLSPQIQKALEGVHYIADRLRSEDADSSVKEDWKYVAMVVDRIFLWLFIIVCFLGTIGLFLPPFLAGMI
Sequence of Neuronal acetylcholine receptor; alpha2/beta4 (P12392 whole entry): as the sequence (P12392 whole entry) above
Assay [9] concerns the target Sigma non-opioid intracellular receptor 1 (Rattus norvegicus, UniProt Q9R0C9). Briefly: Displacement of [3H]pentazocine from sigma 1 receptor in rat brain membrane after 2.5 hrs by microbeta scintillation counting analysis. It is filed as cell membranes.
Assay [10] in a line: Displacement of [3H]DTG from sigma 2 receptor in rat PC12 cell membrane after 2 hrs by microbeta scintillation counting analysis. It is filed as cell membranes. The conditions noted are these: pc-12.
Assay [11] addresses Sigma non-opioid intracellular receptor 1 (Homo sapiens, UniProt Q99720). In words: Binding affinity to sigma 1 receptor.

Molecules are shown by their SMILES.

Sequence of Sigma non-opioid intracellular receptor 1 (Rattus norvegicus, UniProt Q9R0C9) (Q9R0C9 whole entry): as the sequence (Q9R0C9 whole entry) above
T1 sequence (P09483 whole entry): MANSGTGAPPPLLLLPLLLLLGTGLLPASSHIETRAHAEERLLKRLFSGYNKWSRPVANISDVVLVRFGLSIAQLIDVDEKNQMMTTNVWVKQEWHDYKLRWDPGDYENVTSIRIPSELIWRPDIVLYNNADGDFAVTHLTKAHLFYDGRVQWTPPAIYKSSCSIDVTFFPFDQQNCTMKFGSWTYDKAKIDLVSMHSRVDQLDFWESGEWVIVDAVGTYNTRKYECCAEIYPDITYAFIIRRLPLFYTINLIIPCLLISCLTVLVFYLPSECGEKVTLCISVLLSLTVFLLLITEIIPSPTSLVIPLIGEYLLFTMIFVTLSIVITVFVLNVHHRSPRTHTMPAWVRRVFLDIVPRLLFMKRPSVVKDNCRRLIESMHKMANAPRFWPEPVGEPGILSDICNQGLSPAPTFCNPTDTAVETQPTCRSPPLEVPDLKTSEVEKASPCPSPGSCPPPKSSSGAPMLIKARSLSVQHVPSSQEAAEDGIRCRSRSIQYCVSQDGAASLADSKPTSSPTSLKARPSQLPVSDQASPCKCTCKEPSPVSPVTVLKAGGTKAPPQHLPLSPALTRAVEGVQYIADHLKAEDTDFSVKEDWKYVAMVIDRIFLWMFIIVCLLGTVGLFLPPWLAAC
T1 sequence (P12390 whole entry): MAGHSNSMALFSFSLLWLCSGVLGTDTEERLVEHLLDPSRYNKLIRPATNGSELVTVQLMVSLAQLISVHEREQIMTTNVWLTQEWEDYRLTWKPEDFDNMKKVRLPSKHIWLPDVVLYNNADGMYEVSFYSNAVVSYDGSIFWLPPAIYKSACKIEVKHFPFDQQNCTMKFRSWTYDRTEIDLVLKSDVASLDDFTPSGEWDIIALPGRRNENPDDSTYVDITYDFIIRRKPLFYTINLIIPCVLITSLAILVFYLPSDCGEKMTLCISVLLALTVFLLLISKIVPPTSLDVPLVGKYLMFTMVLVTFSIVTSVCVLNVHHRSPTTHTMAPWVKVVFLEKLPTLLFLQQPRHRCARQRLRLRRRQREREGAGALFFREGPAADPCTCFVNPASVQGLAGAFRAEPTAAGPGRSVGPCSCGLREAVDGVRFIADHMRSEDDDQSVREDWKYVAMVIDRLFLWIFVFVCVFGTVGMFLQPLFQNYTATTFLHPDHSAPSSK
Sequence of Neuronal acetylcholine receptor; alpha3/beta2 (P04757 whole entry): as the sequence (P04757 whole entry) above
Sequence of Neuronal acetylcholine receptor; alpha3/beta2 (P12390 whole entry): as the sequence (P12390 whole entry) above
Sequence of Neuronal acetylcholine receptor; alpha4/beta4 (P09483 whole entry): as the sequence (P09483 whole entry) above
Sequence of Neuronal acetylcholine receptor; alpha4/beta4 (P12392 whole entry): as the sequence (P12392 whole entry) above
Sequence of Sigma non-opioid intracellular receptor 1 (Homo sapiens, UniProt Q99720) (Q99720 whole entry): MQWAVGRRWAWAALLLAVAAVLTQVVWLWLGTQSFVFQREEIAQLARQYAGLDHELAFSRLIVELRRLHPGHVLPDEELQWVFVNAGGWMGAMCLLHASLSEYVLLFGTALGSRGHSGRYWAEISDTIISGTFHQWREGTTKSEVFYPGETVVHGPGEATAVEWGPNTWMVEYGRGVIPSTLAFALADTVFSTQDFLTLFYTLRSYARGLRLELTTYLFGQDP

With `OCc1cc(OC[C@@H]2CCN2)on1`, the Activity in [1] and in assay [2] was below 50% in each case.

In the case of `Clc1cncc(OCc2cc(OC[C@@H]3CCN3)no2)c1`, the Ki in assay [3] is 5580 nM; in assay [4], above 10000 nM; in [5], 2220 nM; in assay [6], 6100 nM; in [7] it was above 10000 nM; in assay [8] it was 1820 nM. Besides, the affinity in assay [9], expressed as Ki, was 103 nM. For the same compound, the Activity in assay [1] is below 50%.

Take `Cc1cc(OC[C@@H]2CCN2)no1`: the Activity in [1] and in assay [2] was below 50% in each case.

For `Cc1cc(OC[C@@H]2CCN2)on1`, the Activity in assay [1] and in assay [2] was below 50% throughout.

Turning to `c1ccc(OCc2cc(OC[C@@H]3CCCN3)on2)cc1`, the Activity in [1] was below 50%. In assay [9], this compound came in with a Ki of 4.2 nM.

Compound `c1c(OC[C@@H]2CCN2)noc1COCC1CC1` came in with a Ki in assay [10] of 369 nM. This compound also gave an Activity in assay [2] below 50%.

Take `c1ccc(OCc2cc(OC[C@@H]3CCN3)on2)cc1`: the Activity in assay [1] was below 50%. Besides, in assay [9], the Ki is 328 nM.

On to `COCc1cc(OC[C@@H]2CCN2)no1`, for which the Activity in assay [1] and in [2] was below 50% in each case.

Consider `COC(=O)[C@@]1(c2ccccc2)C[C@H]1CN(C)C12CC3CC(CC(C3)C1)C2`, for which the Ki in [11] amounted to 2.1 nM.
